According to ChEMBL document CHEMBL1201862, “PubChem BioAssay data set” (2004):
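Each compound was tested at five concentrations against cells in 96-well plates for 48 hours. GI50 is the concentration that inhibits growth by half.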 The source made the active and inactive calls. No stated cut-off is given here; in the data, active = GI50 up to about 1.1 µM and inactive = higher.

Key:
Experiment in all cases: growth of human tumour cells (NCI), 48 h
NCI/ADR-RES = tested on: NCI/ADR-RES
SK-OV-3 = tested on: SK-OV-3
LOX IMVI = tested on: LOX IMVI
HCT-116 = tested on: HCT-116
SK-MEL-5 = tested on: SK-MEL-5
786-0 = tested on: 786-0
KM12 = tested on: KM12
MDA-MB-435 = tested on: MDA-MB-435
SF-295 = tested on: SF-295
HT-29 = tested on: HT-29
HCC 2998 = tested on: HCC 2998
BT-549 = tested on: BT-549
DU-145 = tested on: DU-145
HCT-15 = tested on: HCT-15
OVCAR-8 = tested on: OVCAR-8
MOLT-4 = tested on: MOLT-4
SF-268 = tested on: SF-268
SK-MEL-2 = tested on: SK-MEL-2
RXF 393 = tested on: RXF 393

Row | SMILES | GI50 (NCI/ADR-RES) | GI50 (SK-OV-3) | GI50 (LOX IMVI) | GI50 (HCT-116) | GI50 (SK-MEL-5) | GI50 (786-0) | GI50 (KM12) | GI50 (MDA-MB-435) | GI50 (SF-295) | GI50 (HT-29) | GI50 (HCC 2998) | GI50 (BT-549) | GI50 (DU-145) | GI50 (HCT-15) | GI50 (OVCAR-8) | GI50 (MOLT-4) | GI50 (SF-268) | GI50 (SK-MEL-2) | GI50 (RXF 393)
1 | OCCN(C1=NCCN1)/[N+](=C\c1ccccn1)[CH-]c1ccccn1 | > 100 µM (inactive) | > 100 µM (inactive) | > 100 µM (inactive) | > 100 µM (inactive) | > 100 µM (inactive) | > 100 µM (inactive) | > 100 µM (inactive) | > 100 µM (inactive) | > 100 µM (inactive) | > 100 µM (inactive) | > 100 µM (inactive) | > 100 µM (inactive) | > 100 µM (inactive) | > 100 µM | > 100 µM (inactive) | > 100 µM (inactive) | > 100 µM (inactive) |  | 
2 | N#CC1Cc2cc3c(cc21)OCO3 (stereo not given) | > 100 µM (inactive) |  | > 100 µM (inactive) | > 100 µM (inactive) | > 100 µM (inactive) | > 100 µM (inactive) | > 100 µM (inactive) | > 100 µM (inactive) | > 100 µM (inactive) | > 100 µM (inactive) | > 100 µM (inactive) | > 100 µM (inactive) | > 100 µM (inactive) | > 100 µM | > 100 µM (inactive) | > 100 µM (inactive) |  | > 100 µM (inactive) | 
3 | Clc1ccc(OCc2nnc3sc(-c4ccc(-c5ccc(Cl)cc5Cl)o4)nn23)cc1 | > 100 µM (inactive) | > 100 µM (inactive) | > 100 µM (inactive) | > 100 µM (inactive) | > 100 µM (inactive) | > 100 µM (inactive) | > 100 µM (inactive) | > 100 µM (inactive) | 89.1 µM (inactive) | > 100 µM (inactive) |  | > 100 µM (inactive) | > 100 µM (inactive) | > 100 µM | > 100 µM (inactive) | > 100 µM (inactive) | > 100 µM (inactive) | 50.6 µM (inactive) | 16.4 µM (inactive)
4 | Cc1cccc(N2C(=O)C3ON(C(C(N)=O)c4ccccc4)C(c4c5ccccc5c(Cl)c5ccccc45)C3C2=O)c1C (stereo not given) | 10.9 µM (inactive) | 18.8 µM (inactive) | 7.1 µM (inactive) | 1.34 µM (inactive) | 7.03 µM (inactive) | 9.62 µM (inactive) | 1.85 µM (inactive) | 6.31 µM (inactive) | 9.66 µM (inactive) | 7.82 µM (inactive) |  | 9.98 µM (inactive) | 10.4 µM (inactive) | 7.38 µM | 9.84 µM (inactive) | 1.89 µM (inactive) | 9.59 µM (inactive) | 9.23 µM (inactive) | 5.66 µM (inactive)
5 | Cc1ccc(S(=O)(=O)n2ccn3c(=O)cc(C)nc23)cc1 | > 10 µM (inactive) | > 10 µM (inactive) | > 10 µM (inactive) | > 10 µM (inactive) | > 10 µM (inactive) | > 10 µM (inactive) | > 10 µM (inactive) | > 10 µM (inactive) | > 10 µM (inactive) | > 10 µM (inactive) |  | > 10 µM (inactive) | > 10 µM (inactive) | > 10 µM | > 10 µM (inactive) | > 10 µM (inactive) | > 10 µM (inactive) | > 10 µM (inactive) | > 10 µM (inactive)
6 | N#Cc1cc2c(cc1Cl)Sc1nccn1S2(=O)=O | 1.68 µM (inactive) | 4.47 µM (inactive) | 1.57 µM (inactive) | 1.79 µM (inactive) | 9.93 µM (inactive) | 14.8 µM (inactive) | 5.79 µM (inactive) | 4.91 µM (inactive) | 4.31 µM (inactive) | 0.977 µM (active) |  | 3.32 µM (inactive) | 2.33 µM (inactive) | 1.25 µM | 2.82 µM (inactive) | 0.667 µM (active) | 3.33 µM (inactive) | 3.74 µM (inactive) | 4.61 µM (inactive)
